Experimental findings from patent US7314858B2, “Retrocyclins: antiviral and antimicrobial peptides” (priority 2001, dated 2008) are described below.

“Also recorded” adds a separate entry of the source. Where a SMILES comes first, the peptide text is derived from it. Bridges are numbered along the chain shown (N, C = ends). Where only a bound is given, the exact number is not on record here.

The test system of one series is HIV-1 strain IIIB. Put plainly: HIV-1 IIIB infection of CD4+ PBMC, p24 antigen ELISA. The settings on record: for inhibition of HIV-1 replication (p24): CD4+ PBMC, IIIB (X4), peptide 10-20 μg/ml. It is filed as cell-based. The method, boiled down: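 CD4+-selected PBMC from seronegative donors, CD3-CD8 bispecific antibody-stimulated, maintained in R10-50 media with IL-2, exposed to HIV-1 IIIB for 3 h with or without 20 μg/ml retrocyclin, then washed and cultured 9 more days. Infection measured as p24 antigen by ELISA (sensitivity 10 pg/ml); duplicate experiments averaged.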

A further series has as its system HIV-1 strain JR-CSF. In words: HIV proviral DNA formation, quantitative real time PCR in CD4+-selected PBMC. It is filed as cell-based. To be noted: 20 μg/ml, MOI 0.1. From the text:
FIG. 13. Retrocyclin and RC-101 inhibited the formation of HIV proviral DNA. Retrocyclin and RC-101 inhibited the formation of DNA from both early events (total HIV DNA) and later events (full-length HIV DNA) of reverse transcription. Data are an average of 2 experiments, except for RC-101 (1 experiment). “HI virus” is a heat-inactivated virus control for background levels of viral DNA.
Retrocyclin inhibits HIV replication at an early step (reverse transcription or before). To determine whether retrocyclin blocked the formation of proviral DNA in HIV-JR-CSF-inoculated CD4^+-selected PBMC, quantitative real time PCR was performed. This method is more sensitive than measuring p24 release and can detect infection even when p24 values may be affected by virus carried over from the original inoculum. CD4^+-selected PBMC (10^6 cells) were incubated in 250 μl at 37° C./5% CO2 for 3 hr with either HIV-1 strain JR-CSF (MOI=0.1), heat-inactivated virus (background control), JR-CSF+20 μg/ml retrocyclin or JR-CSF+20 μg RC-101. Cells were washed and resuspended in 1 ml R10-50 media, and incubated for an additional 9 hours. Following incubation, cells were pelleted at 300×g, removed of overlying supernatant, and stored at −80° C. until analyzed by real time PCR.

The test system of another series is HSV-2. In words: HSV inactivation microplate assay on ME-180 cells (MTT). The format is cell-based. The settings on record: 2-50 μg/ml, 2 hrs with virus, 72 hrs culture. As to the method:
FIG. 14. Inactivation of HSV-1 and HSV-2 by retrocyclin and RC-101. Retrocyclin (left panel) and RC-101 (right panel) at the indicated concentrations were incubated with herpes simplex virus, type 1 (HSV-1) or HSV-2 for 2 hrs and then added to ME-180 cell monolayers. Cells were incubated at 37° C. for 72 hrs, and cytotoxicity was measured with an MTT kit.
Some retrocyclins are slightly active against herpes simplex virus (HSV). To determine if the activity of retrocyclin against HIV-1 was specific or representative of a more global antiviral effect, it was tested its ability to prevent HSV infection in vitro. A quantitative microplate assay was used to screen retrocyclin and retrocyclin-congeners for their ability to inactivate HSV type 1 (HSV-1) and HSV-2. The assay utilized small amounts of peptide and simultaneously evaluated for peptide-induced cytotoxicity. In brief, final peptide concentrations of 2-50 μg/ml were incubated with virus stocks for 2 hrs and added directly to ME-180 human cervical carcinoma cells. Cultures were incubated at 37° C. for 72 hrs and cytotoxicity was measured using a 3-(4,5-dimethylthiazon-2-yl)-2,5-diphenyltetrazolium bromide (MTT) cell proliferation kit (Boehringer-Mannheim, Germany). Calculations to assess antiviral activity and compute “percent protection” are delineated in (90).

The subject of the next series is human red blood cells. Put plainly: Hemagglutination of washed red blood cells in PBS. To be noted: washed human red blood cells in PBS. As to the method:
Hemagglutination was tested by adding the stated concentration of peptide to a well comprising red blood cells (shown in FIG. 22). When the RBC are agglutinated, they clump together and settle rapidly and form a diffuse circle covering much of the bottom of the well. In the absence of agglutination, they settle more slowly and form a compact red button in the center of the well.
Sequences of retrocyclin-related peptides that were synthesized and either tested for activity against HIV-1 (see FIGS. 21A and 21B) and/or for their ability to cause human red blood cells to hemagglutinate or both. NT signifies not tested. Linear sequences appear in the table, but all peptides were cyclic and contained three intramolecular disulfide bonds. Hemagglutination of washed human red blood cells was tested in PBS, at peptide concentrations of 50, 25, 12.5 6.25 and 3.12 μg/ml. The lowest concentrations that caused hemagglutination are shown. Peptide concentrations were determined by amino acid analysis or by AUC (area under the curve) RP-HPLC analysis with reference to amino-acid analyzed standards.

In the case of `CC[C@H](C)[C@@H]1NC(=O)CNC(=O)[C@H](CCCNC(=N)N)NC(=O)CNC(=O)[C@@H]2CSSC[C@H](NC1=O)C(=O)N[C@@H](CCCNC(=N)N)C(=O)N[C@H]1CSSC[C@H](NC(=O)[C@H](CCCNC(=N)N)NC(=O)[C@@H]3CSSC[C@H](NC(=O)[C@H]([C@@H](C)CC)NC1=O)C(=O)NCC(=O)N[C@@H](CCCNC(=N)N)C(=O)NCC(=O)N[C@@H]([C@@H](C)CC)C(=O)N3)C(=O)N[C@@H]([C@@H](C)CC)C(=O)N2` [RC-100, Retrocyclin] (cyclo(GICRCICGRGICRCICGR); disulfide 3-16, 5-14, 7-12), the “reduction of p24 concentration” value in the series with HIV-1 strain IIIB (20 μg/ml added 24 hours after initial infection) was around 1000 fold. Further, the “inhibition of HIV-1 replication (p24)” value in the series on HIV-1 strain IIIB is on record as “complete suppression; also recorded: uniformly protective”. For the same compound, the “formation of HIV-1 proviral DNA” value in the series on HIV-1 strain JR-CSF is “inhibited the formation of HIV-1 proviral DNA”. The “protection against HSV-2” value in the series with HSV-2 is “modest protection”. In addition, the “Hemagglutination seen at a concentration of (lowest concentration that caused hemagglutination)” value in the series with human red blood cells fell in the range of 6 to 12.5 µg/mL.

On to `CC[C@H](C)[C@@H]1NC(=O)CNC(=O)[C@H](CCCCN)NC(=O)CNC(=O)[C@@H]2CSSC[C@H](NC1=O)C(=O)N[C@@H](CCCNC(=N)N)C(=O)N[C@H]1CSSC[C@H](NC(=O)[C@H](CCCNC(=N)N)NC(=O)[C@@H]3CSSC[C@H](NC(=O)[C@H]([C@@H](C)CC)NC1=O)C(=O)NCC(=O)N[C@@H](CCCNC(=N)N)C(=O)NCC(=O)N[C@@H]([C@@H](C)CC)C(=O)N3)C(=O)N[C@@H]([C@@H](C)CC)C(=O)N2` [RC-101, R9K-Retrocyclin], for which, in the series with HIV-1 strain IIIB, the “inhibition of HIV-1 replication (p24)” value is “as active as retrocyclin”. For the same compound, in the series on HIV-1 strain JR-CSF, the “formation of HIV-1 proviral DNA” value was “inhibited the formation of HIV-1 proviral DNA”. In the series with HSV-2, the “protection against HSV-2” value is “nearly completely protective”. In the series with human red blood cells, the “Hemagglutination seen at a concentration of (lowest concentration that caused hemagglutination)” value is above 200 µg/mL and the “hemagglutination compared with retrocyclin” value is “much less hemagglutination than retrocyclin; also recorded: less hemagglutination than retrocyclin-1 or retrocyclin-2”.
